According to US11685746B2, “Heteroaryl compounds for treating Huntington's disease” (PTC THERAPEUTICS, INC., priority 2018, dated 2023):
pIC50: −log10 of the molar value.

The molecules below were run on Endogenous Huntingtin Protein (assay: Endogenous Huntingtin Protein Assay (MSD plates, MW1 or MAB2166 capture antibody)). Settings: Table 1.
Assay type: cell-based
Description: Endogenous Huntingtin Protein Assay
Meso Scale Discovery (MSD) 96-well or 384-well plates were coated overnight at 4° C. with MW1 (expanded polyglutamine) or MAB2166 monoclonal antibody (for capture) at a concentration of 1 μg/mL in PBS (30 μL per well). Plates were then washed three times with 300 μL wash buffer (0.05% Tween-20 in PBS) and blocked (100 μL blocking buffer; 5% BSA in PBS) for 4-5 hours at room temperature with rotational shaking and then washed three times with wash buffer.
Samples (25 μL) were transferred to the antibody-coated MSD plate and incubated overnight at 4° C. After removal of the lysates, the plate was washed three times with wash buffer, and 25 μL of #5656S (Cell signaling; rabbit monoclonal) secondary antibody (diluted to 0.25 μg/mL in 0.05% Tween-20 in blocking buffer) was added to each well and incubated with shaking for 1 Hour at room temperature. Following incubation with the secondary antibody, the wells were rinsed with wash buffer after which 25 μL of goat anti-rabbit SULFO TAG secondary detection antibody (required aspect of the MSD system) (diluted to 0.25 μg/mL in 0.05% Tween-20 in blocking buffer) was added to each well and incubated with shaking for 1 hour at room temperature. After rinsing three times with wash buffer, 150 μL of read buffer T with surfactant (MSD) were added to each empty well, and the plate was imaged on a SI 6000 imager (MSD) according to manufacturers' instructions provided for 96- or 384-well plates.

SMILES	pIC50
Cc1n[nH]c(C)c1-c1cnc(-c2nc3sc(N(C)[C@H]4C[C@]5(C)CC[C@](C)(C4)N5)nc3s2)cn1 [Compound 73, N-[(1R,3s,5S)-1,5-dimethyl-8-azabicyclo[3.2.1]octan-3-yl]-5-[5-(3,5-dimethyl-1H-pyrazol-4-yl)pyrazin-2-yl]-N-methyl[1,3]thiazolo[5,4-d][1,3]thiazol-2-amine]	5.52 to 6.00
Cc1cc(-c2nc3sc(C4CCNCC4)nc3s2)cc2cn(C)nc12 [Compound 16, 2,7-dimethyl-5-[5-(piperidin-4-yl)[1,3]thiazolo[5,4-d][1,3]thiazol-2-yl]-2H-indazole]	≥ 7.00
COc1cc(-c2cnc(-c3nc4sc(N(C)[C@H]5C[C@]6(C)CC[C@](C)(C5)N6)nc4s3)cn2)ccn1 [Compound 69, N-[(1R,3s,5S)-1,5-dimethyl-8-azabicyclo[3.2.1]octan-3-yl]-5-[5-(2-methoxypyridin-4-yl)pyrazin-2-yl]-N-methyl[1,3]thiazolo[5,4-d][1,3]thiazol-2-amine]	6.30 to 7.00
CN(c1nc2sc(-c3ncc(-c4cn[nH]c4)cc3O)nc2s1)C1CCN2CCCC2C1 (stereo not shown) [Compound 145, 2-{5-[methyl(octahydroindolizin-7-yl)amino][1,3]thiazolo[5,4-d][1,3]thiazol-2-yl}-5-(1H-pyrazol-4-yl)pyridin-3-ol]	≥ 7.00
CN(c1nc2sc(-n3cnc(-c4cn[nH]c4)cc3=O)nc2s1)C1CC(C)(C)NC(C)(C)C1 [Compound 140, 3-{5-[methyl(2,2,6,6-tetramethylpiperidin-4-yl)amino][1,3]thiazolo[5,4-d][1,3]thiazol-2-yl}-6-(1H-pyrazol-4-yl)pyrimidin-4(3H)-one]	≥ 7.00
C[C@@H]1C[C@@H](Oc2nc3sc(-c4ccc(-c5cn[nH]c5)c5cn[nH]c45)nc3s2)CCN1 [Compound 78, 7-(5-{[(2R,4S)-2-methylpiperidin-4-yl]oxy}[1,3]thiazolo[5,4-d][1,3]thiazol-2-yl)-4-(1H-pyrazol-4-yl)-1H-indazole]	≥ 7.00
CC(C)(C)NC1CCN(c2nc3sc(-c4ccc(-c5cn[nH]c5)cc4O)nc3s2)C1 (stereo not shown) [Compound 147, 2-{5-[3-(tert-butylamino)pyrrolidin-1-yl][1,3]thiazolo[5,4-d][1,3]thiazol-2-yl}-5-(1H-pyrazol-4-yl)phenol]	5.52 to 6.00
Cc1n[nH]cc1-c1cnc(-c2nc3sc(N(C)C4CCNCC4)nc3s2)c(O)c1 [Compound 219, 2-{5-[methyl(piperidin-4-yl)amino][1,3]thiazolo[5,4-d][1,3]thiazol-2-yl}-5-(3-methyl-1H-pyrazol-4-yl)pyridin-3-ol]	≥ 7.00
CN(c1nc2sc(-n3cnc(-c4cn[nH]c4)c3)nc2s1)[C@@H]1C[C@H]2CC[C@@H](C1)N2 [Compound 170, N-[(1R,3s,5S)-8-azabicyclo[3.2.1]octan-3-yl]-N-methyl-5-[4-(1H-pyrazol-4-yl)-1H-imidazol-1-yl][1,3]thiazolo[5,4-d][1,3]thiazol-2-amine]	6.30 to 7.00
CN(c1nc2sc(-c3ccc(-c4cnn(C)c4F)cc3O)nc2s1)C1CC(C)(C)NC(C)(C)C1 [Compound 48, 5-(5-fluoro-1-methyl-1H-pyrazol-4-yl)-2-{5-[methyl(2,2,6,6-tetramethylpiperidin-4-yl)amino][1,3]thiazolo[5,4-d][1,3]thiazol-2-yl}phenol]	6.30 to 7.00
CN(c1nc2sc(-c3ccc(-c4ccn(C)c(=O)c4)cc3O)nc2s1)C1CC(C)(C)NC(C)(C)C1 [Compound 46]	≥ 7.00
Cc1cn2nc(-c3cn4cc(C5CCNCC5)nc4s3)cc(C)c2n1 [Compound 8, 2,8-dimethyl-6-[6-(piperidin-4-yl)imidazo[2,1-b][1,3]thiazol-2-yl]imidazo[1,2-b]pyridazine]	≥ 7.00
CN(c1nc2sc(-c3ncc(-c4cn[nH]c4)cn3)nc2s1)C1CCNCC1 [Compound 201, N-methyl-N-(piperidin-4-yl)-5-[5-(1H-pyrazol-4-yl)pyrimidin-2-yl][1,3]thiazolo[5,4-d][1,3]thiazol-2-amine]	6.00 to 6.30
